Laboratory results as given in ChEMBL document CHEMBL5518165, “M335, a novel small-molecule STING agonist activates the immune response and exerts antitumor effects” (Eur J Med Chem, 2024).
The source made the active and inactive calls. The calls are words filed in the database; no cut-off is given here.

How the values were obtained:
[1] = biological target: Stimulator of interferon genes protein (Homo sapiens) (UniProt Q86WV6); assay: Agonist activity at STING in human THP-1 cells assessed as increase in TBK1 phosphorylation incubated for 4 hrs by Western blotting analysis; format: cell-based; settings: filed as agonist, dose 5-40 µM
Stimulator of interferon genes protein (Homo sapiens), sequence (Q86WV6 whole entry): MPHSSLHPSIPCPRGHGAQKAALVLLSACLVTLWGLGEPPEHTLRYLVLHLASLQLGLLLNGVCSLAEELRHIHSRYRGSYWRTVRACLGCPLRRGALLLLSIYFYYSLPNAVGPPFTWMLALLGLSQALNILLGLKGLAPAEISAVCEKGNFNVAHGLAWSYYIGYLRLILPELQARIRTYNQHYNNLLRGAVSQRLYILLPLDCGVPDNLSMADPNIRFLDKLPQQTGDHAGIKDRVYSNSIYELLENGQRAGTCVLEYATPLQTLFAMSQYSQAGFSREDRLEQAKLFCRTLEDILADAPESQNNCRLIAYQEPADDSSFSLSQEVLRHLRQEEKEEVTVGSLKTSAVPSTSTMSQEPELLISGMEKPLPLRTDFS

[2] = biological target: Stimulator of interferon genes protein (Homo sapiens) (UniProt Q86WV6); assay: Agonist activity at STING in human THP-1 cells assessed as increase in LC3 protein level at 20 uM measured for 4 hrs by Western blotting analysis; format: cell-based; settings: filed as agonist
[3] = biological target: Stimulator of interferon genes protein (Homo sapiens) (UniProt Q86WV6); assay: Agonist activity at STING in human THP-1 cells assessed as increase in TBK1 phosphorylation at 20 uM measured for 4 hrs by Western blotting analysis; format: cell-based; settings: filed as agonist
[4] = biological target: Stimulator of interferon genes protein (Homo sapiens) (UniProt Q86WV6); assay: Agonist activity at STING in human THP-1 cells assessed as IRF3 phosphorylation at 20 uM measured for 4 hrs in presence of H-151 by Western blotting analysis; format: cell-based
[5] = biological target: Stimulator of interferon genes protein (Homo sapiens) (UniProt Q86WV6); assay: Agonist activity at STING in human THP-1 cells assessed as increase in IFNB mRNA level at 20 uM measured for 4 hrs by qPCR analysis; format: cell-based; settings: filed as agonist
[6] = biological target: Stimulator of interferon genes protein (Homo sapiens) (UniProt Q86WV6); assay: Agonist activity at STING in human THP-1 cells assessed as increase in ISG15 mRNA level at 20 uM measured for 4 hrs by qPCR analysis; format: cell-based; settings: filed as agonist
[7] = biological target: Stimulator of interferon genes protein (Homo sapiens) (UniProt Q86WV6); assay: Agonist activity at STING in human THP-1 cells assessed as increase in IL6 mRNA level at 20 uM measured for 4 hrs by qPCR analysis; format: cell-based; settings: filed as agonist
THP-1 [8] = assay: Upregulation of IFNB mRNA level in STING-knockout human THP-1 cells at 20 uM measured for 4 hrs by qPCR analysis; format: functional, cell-based
THP-1 [9] = assay: Upregulation of CXCL10 mRNA level in STING-knockout human THP-1 cells at 20 uM measured for 4 hrs by qPCR analysis; format: functional, cell-based
THP-1 [10] = assay: Upregulation of IL6 mRNA level in STING-knockout human THP-1 cells at 20 uM measured for 4 hrs by qPCR analysis; format: functional, cell-based
THP1-Dual KO-STING = assay: Upregulation of interferon production in human THP1-Dual KO-STING cells by dual-luciferase reporter assay; format: functional, cell-based
[11] = biological target: Stimulator of interferon genes protein (Homo sapiens) (UniProt Q86WV6); assay: Agonist activity at STING in human THP-1 cells assessed as increase in STING oligomerization by Western blotting analysis; format: cell-based; settings: filed as agonist, dose 5-40 µM
[12] = biological target: Stimulator of interferon genes protein (Homo sapiens) (UniProt Q86WV6); assay: Binding affinity to STING CTD (unknown origin) at 3.125 to 200 uM by surface plasmon resonance analysis; settings: filed as agonist, dose 3.125-200 µM
[13] = biological target: Stimulator of interferon genes protein (Homo sapiens) (UniProt Q86WV6); assay: Binding affinity to human STING CTD assessed as decrease in protein stability by Western blotting analysis; settings: filed as agonist
Human alphaherpesvirus 1 [14] = assay: Antiviral activity against HSV-1-GFP infected in human THP-1 cells assessed as reduction in viral infection pre-infected with virus for 24 hrs followed by compound addition and measured after 6 hrs by flow cytometry analysis; format: functional, organism-based; settings: dose 10-30 µM
Human alphaherpesvirus 1 [15] = assay: Antiviral activity against HSV-1-GFP infected in human THP-1 cells assessed as reduction in viral infection at 10 to 30 uM pre-infected with virus for 48 hrs followed by compound addition and measured after 6 hrs by flow cytometry analysis; format: functional, organism-based; settings: dose 10-30 µM
Human alphaherpesvirus 1 [16] = assay: Antiviral activity against HSV-1-GFP infected in human THP-1 cells assessed as reduction in proportion of infected cells pre-infected […] for 24 hrs followed by compound addition and measured after 6 hrs by flow cytometry analysis; format: functional, organism-based; settings: dose 10-30 µM
Human alphaherpesvirus 1 [17] = assay: Antiviral activity against HSV-1-GFP infected in mouse MC38 cells assessed as reduction in viral infection by fluorescent microscopy analysis; format: functional, organism-based
Human alphaherpesvirus 1 [18] = assay: Antiviral activity against HSV-1-GFP infected in human HeLa cells assessed as reduction in viral infection by fluorescent microscopy analysis; format: functional, organism-based
Human alphaherpesvirus 1 [19] = assay: Antiviral activity against HSV-1-GFP infected in human STING-deficient WT HeLa cells assessed as reduction in viral infection by fluorescent microscopy analysis; format: functional, organism-based
MC-38 [20] = assay: Induction of apoptosis in mouse MC38 cells allografted in C57/BL6 mouse a at 300 ug, IT administered every 2 days; format: functional, cell-based; settings: dose 300.0 µg
MC-38 [21] = assay: Antitumor activity against mouse MC38 cells allografted in C57/BL6 mouse assessed as increase in CD45+ T cells in spleen at 300 ug, IT administered every 2 days by flow cytometry analysis; format: functional, cell-based; settings: dose 300.0 µg
MC-38 [22] = assay: Antitumor activity against mouse MC38 cells allografted in C57/BL6 mouse assessed as increase in CD3+ T cells in tumor tissue at 300 ug, IT administered every 2 days by flow cytometry analysis; format: functional, cell-based; settings: dose 300.0 µg
MC-38 [23] = assay: Antitumor activity against mouse MC38 cells allografted in C57/BL6 mouse assessed as increase in CD8+ T cells in tumor tissue at 300 ug, IT administered every 2 days by flow cytometry analysis (reference value: 4.10%); format: functional; settings: dose 300 µg
MC-38 [24] = assay: Antitumor activity against mouse MC38 cells allografted in C57/BL6 mouse assessed as increase in CD8+ T cell numbers in spleen at 300 ug, IT administered every 2 days by immunohistochemical staining based analysis; format: functional; settings: dose 300.0 µg
MC-38 [25] = assay: Antitumor activity against mouse MC38 cells allografted in C57/BL6 mouse assessed as increase in CD8+ T cell numbers in tumor tissues at 300 ug, IT administered every 2 days by immunohistochemical staining based analysis; format: functional; settings: dose 300.0 µg
[26] = Toxicity in […] mouse allografted with mouse CT26 cells assessed as change in body weight at 300 ug, IT administered every 2 days; format: cell-based; settings: in vivo, other, 48 h, dose 300 µg
B16-F10 = assay: Antitumor activity against mouse B16-F10 cells allografted in C57/BL6 mouse assessed as reduction in tumor growth at 300 ug, IT administered every 2 days; format: functional, cell-based; settings: dose 300.0 µg
CT26 [27] = assay: Antitumor activity against mouse CT26 cells allografted in ip dosed […] mouse assessed as reduction in tumor growth administered every 2 days; format: functional, organism-based; settings: dose 5-20 mg/kg
CT26 [28] = assay: Antitumor activity against mouse CT26 cells […] mouse assessed as augmentation of CD45+ cells in spleen at 10 mg/kg, ip administered every 2 days (reference value: 35.1%); format: functional
CT26 [29] = assay: Antitumor activity against mouse CT26 cells […] mouse assessed as augmentation of CD45+ cells in spleen at 20 mg/kg, ip administered every 2 days (reference value: 35.1%); format: functional; settings: time 2 day
CT26 [30] = assay: Antitumor activity against mouse CT26 cells […] mouse assessed as augmentation of CD8+ T cells in spleen at 10 mg/kg, ip administered every 2 days (reference value: 6.99%); format: functional
[31] = biological target: Stimulator of interferon genes protein (Homo sapiens) (UniProt Q86WV6); assay: Agonist activity at STING in human THP-1 cells at 50 uM; format: cell-based; settings: filed as agonist
[32] = biological target: Stimulator of interferon genes protein (Homo sapiens) (UniProt Q86WV6); assay: Agonist activity at STING in human THP-1 cells assessed as upregulation of innate immune response related genes by gene ontology analysis; format: cell-based; settings: filed as agonist
[33] = biological target: Stimulator of interferon genes protein (Homo sapiens) (UniProt Q86WV6); assay: Agonist activity at STING in human THP-1 cells assessed as upregulation of DNA replication related genes by gene ontology analysis; format: cell-based; settings: filed as agonist
[34] = biological target: Stimulator of interferon genes protein (Homo sapiens) (UniProt Q86WV6); assay: Agonist activity at STING in human THP-1 cells assessed as upregulation of IFNgamma related genes by GSEA; format: cell-based; settings: filed as agonist
[35] = biological target: Stimulator of interferon genes protein (Homo sapiens) (UniProt Q86WV6); assay: Agonist activity at STING in human THP-1 cells assessed as upregulation of IL-6/JAK/STAT3 signaling pathway by GSEA; format: cell-based; settings: filed as agonist

CC(NCCC(c1ccccc1)c1ccccc1)c1ccccc1 (configuration not stated) [FENDILINE]
Activity [1]: Dose-Dependent Effect | Activity [2]: Active | Activity [3]: Active | Activity [4]: inactive | Activity [5]: Active | Activity [6]: Active | Activity [7]: Active | Activity (THP-1 [8]): inactive | Activity (THP-1 [9]): inactive | Activity (THP-1 [10]): inactive | Activity (THP1-Dual KO-STING): inactive | Activity [11]: Dose-Dependent Effect | Activity [12]: Active | Activity [13]: Active | Activity (Human alphaherpesvirus 1 [14]): Dose-Dependent Effect | Activity (Human alphaherpesvirus 1 [15]): Active | Activity (Human alphaherpesvirus 1 [16]): Dose-Dependent Effect | Activity (Human alphaherpesvirus 1 [17]): Active | Activity (Human alphaherpesvirus 1 [18]): Active | Activity (Human alphaherpesvirus 1 [19]): Active | Activity (MC-38 [20]): inactive | Activity (MC-38 [21]): Active | Activity (MC-38 [22]): Active | Activity (MC-38 [23]): 14.7% | Activity (MC-38 [24]): Active | Activity (MC-38 [25]): Active | Activity [26]: Non-Toxic | Activity (B16-F10): Active | Activity (CT26 [27]): Dose-Dependent Effect | Activity (CT26 [28]): 56.3% | Activity (CT26 [29]): 76.1% | Activity (CT26 [30]): 15.1% | Activity [31]: Active | Activity [32]: Active | Activity [33]: Active | Activity [34]: Active | Activity [35]: Active
